Test results from patent US10881653B2, “Tricyclic compounds and their use in the treatment of cancer” (The United States of America, as represented by the …, priority 2015, dated 2021).
Where a name gives a salt, the structure may show the parent alone.

Legend:
Experiment in all cases: Cell growth inhibition GI50
Assay type in all cases: cell-based
COLO 205 = conditions: Homo sapiens, Colon Cancer
Method: (§1) Cell lines were plated 2000 cells/well in 96-well black optical plates in the presence of 10% FBS media containing 25 nM selenite. The following day cells were treated with various concentrations of the compound of Example 1 (0.1% DMSO final) and incubated for 72 hrs. After the incubation Cell-Quanti Blue reagent was added to each well and incubated for additional 3 hrs. Fluorescence was read ex:530 nm/em:590 nm, and percent of viability was determined using DMSO vehicle and no cell (blank) controls.
(§2) Further results obtained in similar experiments were as indicated below (GI50 refers to concentration of compound yielding 50% growth inhibition; E denotes an exponent to the base 10).

MCF7 = conditions: Homo sapiens, Breast Cancer
Method: as §1, §2

MDA-MB-435 = conditions: Homo sapiens, Melanoma
Method: as §1, §2

SK-MEL-28 = conditions: Homo sapiens, Melanoma
Method: as §1, §2

TK-10 = conditions: Homo sapiens, Renal Cancer
Method: as §1, §2

SNB-19 = conditions: Homo sapiens, CNS Cancer
Method: as §1, §2

786-0 = conditions: Homo sapiens, Renal Cancer
Method: as §1, §2

U251 = conditions: Homo sapiens, U-251, CNS Cancer
Method: as §1, §2

NCI-H226 = conditions: Homo sapiens, Non-Small Cell Lung Cancer
Method: as §1, §2

BT-549 = conditions: Homo sapiens, Breast Cancer
Method: as §1, §2

SF-539 = conditions: Homo sapiens, CNS Cancer
Method: as §1, §2

T-47D = conditions: Homo sapiens, T47D, Breast Cancer
Method: as §1, §2

IGROV1 = conditions: Homo sapiens, IGROV-1, Ovarian Cancer
Method: as §1, §2

K-562 = conditions: Homo sapiens, K562, Leukemia
Method: as §1, §2

NCI-H460 = conditions: Homo sapiens, Non-Small Cell Lung Cancer
Method: as §1, §2

SN12C = conditions: Homo sapiens, Renal Cancer
Method: as §1, §2

SK-MEL-2 = conditions: Homo sapiens, Melanoma
Method: as §1, §2

UACC-62 = conditions: Homo sapiens, Melanoma
Method: as §1, §2

OVCAR-5 = conditions: Homo sapiens, Ovarian Cancer
Method: as §1, §2

MDA-MB-231/ATCC = conditions: Homo sapiens, Breast Cancer
Method: as §1, §2

A549/ATCC = conditions: Homo sapiens, Non-Small Cell Lung Cancer
Method: as §1, §2

SK-MEL-5 = conditions: Homo sapiens, Melanoma
Method: as §1, §2

PC-3 = conditions: Homo sapiens, Prostate Cancer
Method: as §1, §2

SNB-75 = conditions: Homo sapiens, CNS Cancer
Method: as §1, §2

ACHN = conditions: Homo sapiens, Renal Cancer
Method: as §1, §2

CAKI-1 = conditions: Homo sapiens, Renal Cancer
Method: as §1, §2

MALME-3M = conditions: Homo sapiens, Melanoma
Method: as §1, §2

HCT-116 = conditions: Homo sapiens, Colon Cancer
Method: as §1, §2

OVCAR-4 = conditions: Homo sapiens, Ovarian Cancer
Method: as §1, §2

NCI-H322M = conditions: Homo sapiens, Non-Small Cell Lung Cancer
Method: as §1, §2

NCI-H522 = conditions: Homo sapiens, Non-Small Cell Lung Cancer
Method: as §1, §2

M14 = conditions: Homo sapiens, Melanoma
Method: as §1, §2

LOX IMVI = conditions: Homo sapiens, Melanoma
Method: as §1, §2

EKVX = conditions: Homo sapiens, Non-Small Cell Lung Cancer
Method: as §1, §2

NCI-H23 = conditions: Homo sapiens, Non-Small Cell Lung Cancer
Method: as §1, §2

SF-268 = conditions: Homo sapiens, CNS Cancer
Method: as §1, §2

RXF 393 = conditions: Homo sapiens, Renal Cancer
Method: as §1, §2

SR = conditions: Homo sapiens, Leukemia
Method: as §1, §2

**Q.** How did the GI50 (COLO 205) turn out when `O=C1C=C[C@H]2[C@@H]3C(=O)N(c4ccccc4)C(=O)[C@@H]3[C@@H]1N2Cc1ccccc1` (relative stereo) [Example 1, exo-11-Benzyl-4-phenyl-4,11-diazatricyclo[5.3.1.0^2,6]undec-9-ene-3,5,8-trione Trifluoroacetate] was run?
**A.** Its GI50 is 5.47 µM.

**Q.** What about the GI50 (MCF7) of the same compound?
**A.** Its GI50 is 3.19 µM.

**Q.** And the GI50 (MDA-MB-435)?
**A.** Its GI50 is 2.72 µM.

**Q.** What about the GI50 (SK-MEL-28) of the same compound?
**A.** The GI50 was 3.01 µM.

**Q.** What about the GI50 (TK-10) of the same compound?
**A.** Its GI50 is 8.07 µM.

**Q.** What about the GI50 (SNB-19) of the same compound?
**A.** The GI50 was 6.04 µM.

**Q.** And the GI50 (786-0)?
**A.** The GI50 was 1.69 µM.

**Q.** And the GI50 (U251)?
**A.** The GI50 was 2.29 µM.

**Q.** And the GI50 (NCI-H226)?
**A.** The GI50 was 7.26 µM.

**Q.** And the GI50 (BT-549)?
**A.** The GI50 was 3.45 µM.

**Q.** And the GI50 (SF-539)?
**A.** Its GI50 is 1.66 µM.

**Q.** What about the GI50 (T-47D) of the same compound?
**A.** Its GI50 is 4.92 µM.

**Q.** What about the GI50 (IGROV1) of the same compound?
**A.** The GI50 was 4.81 µM.

**Q.** And the GI50 (K-562)?
**A.** The GI50 was 1.67 µM.

**Q.** And the GI50 (NCI-H460)?
**A.** Its GI50 is 3.49 µM.

**Q.** And the GI50 (SN12C)?
**A.** Its GI50 is 1.64 µM.

**Q.** And the GI50 (SK-MEL-2)?
**A.** The GI50 was 4.37 µM.

**Q.** What about the GI50 (UACC-62) of the same compound?
**A.** Its GI50 is 2.01 µM.

**Q.** What about the GI50 (OVCAR-5) of the same compound?
**A.** The GI50 was 6.75 µM.

**Q.** What about the GI50 (MDA-MB-231/ATCC) of the same compound?
**A.** Its GI50 is 5.45 µM.

**Q.** And the GI50 (A549/ATCC)?
**A.** Its GI50 is 14.9 µM.

**Q.** What about the GI50 (SK-MEL-5) of the same compound?
**A.** Its GI50 is 3.56 µM.

**Q.** And the GI50 (PC-3)?
**A.** The GI50 was 4.68 µM.

**Q.** What about the GI50 (SNB-75) of the same compound?
**A.** Its GI50 is 4.19 µM.

**Q.** What about the GI50 (ACHN) of the same compound?
**A.** Its GI50 is 3.36 µM.

**Q.** And the GI50 (CAKI-1)?
**A.** Its GI50 is 4.09 µM.

**Q.** And the GI50 (MALME-3M)?
**A.** Its GI50 is 4.62 µM.

**Q.** And the GI50 (HCT-116)?
**A.** Its GI50 is 1.56 µM.

**Q.** And the GI50 (OVCAR-4)?
**A.** Its GI50 is 5.53 µM.

**Q.** What about the GI50 (NCI-H322M) of the same compound?
**A.** Its GI50 is 10.2 µM.

**Q.** What about the GI50 (NCI-H522) of the same compound?
**A.** The GI50 was 2.68 µM.

**Q.** What about the GI50 (M14) of the same compound?
**A.** The GI50 was 2.6 µM.

**Q.** And the GI50 (LOX IMVI)?
**A.** Its GI50 is 1.61 µM.

**Q.** And the GI50 (EKVX)?
**A.** The GI50 was 7.78 µM.

**Q.** What about the GI50 (NCI-H23) of the same compound?
**A.** Its GI50 is 5.37 µM.

**Q.** And the GI50 (SF-268)?
**A.** The GI50 was 3.34 µM.

**Q.** What about the GI50 (RXF 393) of the same compound?
**A.** The GI50 was 2.42 µM.

**Q.** And the GI50 (SR)?
**A.** The GI50 was 1.87 µM.
